# Measured values: article PMC11012124, “Synthesis of Novel Triazine-Based Chalcones and 8,9-dihydro-7H-pyrimido[4,5-b][1,4]diazepines as Potential Leads in the Search of Anticancer, Antibacterial and Antifungal Agents” (International Journal of Molecular Sciences, 2024)
# How the values were obtained:
# A. flavus (ATCC 9170) = test: Antifungal broth microdilution (CLSI); format: cell-based; conditions: ATCC9170; Afl: Aspergillus flavus
# Experimental: (§1) Several of the obtained triazine derivatives were evaluated against sensitive fungal species comprising of two yeasts (Candida albicans (ATCC 10231), Cryptococcus neoformans (ATCC 32264)), three dermatophytes (Microsporum gypseum (CCC 115), Trichophyton rubrum (CCC 134-2000), Trichophyton mentagrophytes (CCC 202-2000)), and three Aspergillus fungi ((A. [NT] 26934), A. niger (ATCC 9029), and A. flavus (ATCC 9170)). […] Broth microdilution techniques were performed in 96-well microplates according to the Reference Method for Broth Dilution Antifungal Susceptibility Testing of Yeasts, document M27-A3 [86] and of Filamentous Fungi […]-A8 [87]. […] An inoculum suspension (100 μL) was added to each well (final well volume = 200 μL). One growth control well (containing medium, inoculum, and the same amount of DMSO as used for each compound) and one sterility control well (sample, medium, and sterile water instead of inoculum) were included for each fungus tested. Microtiter plates were incubated in a dark, humid chamber at 30 °C for the time necessary for each fungus. Amphotericin B, Terbinafine, Fluconazole and Itraconazole were used as a positive control. The tests were performed in triplicate.
# [1] = tested on: A. fumigatus (ATCC 26934); test: Antifungal broth microdilution (CLSI); format: cell-based; conditions: ATCC26934; Afu: Aspergillus fumigatus
# Experimental: as §1
# [2] = tested on: Cryptococcus neoformans (ATCC 32264); test: Antifungal broth microdilution (CLSI); format: cell-based; conditions: ATCC32264; Cn: Cryptococcus neoformans
# Experimental: as §1
# [3] = tested on: Microsporum gypseum (CCC 115); test: Antifungal broth microdilution (CLSI); format: cell-based; conditions: Nannizzia gypsea; Mg: Microsporum gypseum
# Experimental: as §1
# [4] = tested on: Trichophyton mentagrophytes (CCC 202-2000); test: Antifungal broth microdilution (CLSI); format: cell-based; conditions: Tm: Trichophyton mentagrophytes
# Experimental: as §1
# [5] = tested on: Trichophyton rubrum (CCC 134-2000); test: Antifungal broth microdilution (CLSI); format: cell-based; conditions: Tr: Trichophyton rubrum
# Experimental: as §1
# K-562 = test: cells; conditions: Homo sapiens, K562, 48 h; for GI50: K-562, 48 h; for CC50: read-out: LC50
# SR = test: cells; conditions: Homo sapiens, 48 h; for CC50: read-out: LC50
# A549/ATCC = test: cells; conditions: Homo sapiens, A549, 48 h; for CC50: read-out: LC50
# HOP-92 = test: cells; conditions: Homo sapiens, HOP-92, 48 h; for CC50: read-out: LC50
# NCI-H23 = test: cells; conditions: Homo sapiens, NCI-H23, 48 h; for CC50: read-out: LC50
# NCI-H460 = test: cells; conditions: Homo sapiens, NCI-H460, 48 h; for CC50: read-out: LC50
# NCI-H522 = test: cells; conditions: Homo sapiens, NCI-H522, 48 h; for CC50: read-out: LC50
# HCC-2998 = test: cells; conditions: Homo sapiens, HCC 2998, 48 h; for CC50: read-out: LC50
# HCT-15 = test: cells; conditions: Homo sapiens, HCT-15, 48 h; for CC50: read-out: LC50
# KM12 = test: cells; conditions: Homo sapiens, KM12, 48 h; for CC50: read-out: LC50
# SW-620 = test: cells; conditions: Homo sapiens, SW-620, 48 h; for CC50: read-out: LC50
# SNB-19 = test: cells; conditions: Homo sapiens, SNB-19, 48 h; for CC50: read-out: LC50
# SK-MEL-2 = test: cells; conditions: Homo sapiens, SK-MEL-2, 48 h; for CC50: read-out: LC50
# SK-MEL-28 = test: cells; conditions: Homo sapiens, SK-MEL-28, 48 h; for CC50: read-out: LC50
# SK-MEL-5 = test: cells; conditions: Homo sapiens, SK-MEL-5, 48 h; for CC50: read-out: LC50
# IGROV1 = test: cells; conditions: Homo sapiens, IGROV-1, 48 h; for CC50: read-out: LC50
# SK-OV-3 = test: cells; conditions: Homo sapiens, SK-OV-3, 48 h; for CC50: read-out: LC50
# 786-0 = test: cells; conditions: Homo sapiens, 786-0, 48 h; for CC50: read-out: LC50
# CAKI-1 = test: cells; conditions: Homo sapiens, CAKI-1, 48 h; for CC50: read-out: LC50
# RXF 393 = test: cells; conditions: Homo sapiens, RXF 393, 48 h; for CC50: read-out: LC50
# TK-10 = test: cells; conditions: Homo sapiens, TK-10, 48 h; for CC50: read-out: LC50
# MDA-MB-468 = test: cells; conditions: Homo sapiens, MDA-MB-468, 48 h; for CC50: read-out: LC50
# [6] = tested on: M. tuberculosis ATCC 27294; test: Antitubercular broth microdilution MIC; format: cell-based; conditions: Mycobacterium tuberculosis; M. tuberculosis ATCC 27294 (H37Rv); read-out: Minimum inhibitory concentration (MIC)
# SNB-75 = test: cells; conditions: Homo sapiens, SNB-75, 48 h
# NCI/ADR-RES = test: cells; conditions: Homo sapiens, 48 h
smiles,measurement,setting,value
CN(C)c1nc(NCCNS(=O)(=O)c2ccc(C3=Nc4c(N)nc(N)nc4NC(c4ccc(C(F)(F)F)cc4)C3)cc2)nc(N2CCOCC2)n1 (stereo not drawn) [30g],MIC,A. flavus (ATCC 9170),> 250 µg/mL
same,MIC,[1],> 250 µg/mL
same,MIC,[2],125 µg/mL
same,MIC,[3],> 250 µg/mL
same,MIC,[4],> 250 µg/mL
same,MIC,[5],250 µg/mL
same,GI50,K-562,29.1 µM
same,CC50,K-562,> 100 µM
same,GI50,SR,18.1 µM
same,CC50,SR,> 100 µM
same,GI50,A549/ATCC,51.3 µM
same,CC50,A549/ATCC,> 100 µM
same,GI50,HOP-92,7.48 µM
same,CC50,HOP-92,> 100 µM
same,GI50,NCI-H23,37.6 µM
same,CC50,NCI-H23,> 100 µM
same,GI50,NCI-H460,36.5 µM
same,CC50,NCI-H460,> 100 µM
same,GI50,NCI-H522,51.7 µM
same,CC50,NCI-H522,> 100 µM
same,GI50,HCC-2998,20.2 µM
same,CC50,HCC-2998,> 100 µM
same,GI50,HCT-15,30.9 µM
same,CC50,HCT-15,> 100 µM
same,GI50,KM12,37 µM
same,CC50,KM12,> 100 µM
same,GI50,SW-620,46.9 µM
same,CC50,SW-620,> 100 µM
same,GI50,SNB-19,30 µM
same,CC50,SNB-19,> 100 µM
same,GI50,SK-MEL-2,15.8 µM
same,CC50,SK-MEL-2,57.8 µM
same,GI50,SK-MEL-28,34.1 µM
same,CC50,SK-MEL-28,> 100 µM
same,GI50,SK-MEL-5,15.9 µM
same,CC50,SK-MEL-5,57.1 µM
same,GI50,IGROV1,27 µM
same,CC50,IGROV1,> 100 µM
same,GI50,SK-OV-3,69.7 µM
same,CC50,SK-OV-3,> 100 µM
same,GI50,786-0,20.8 µM
same,CC50,786-0,> 100 µM
same,GI50,CAKI-1,25.9 µM
same,CC50,CAKI-1,> 100 µM
same,GI50,RXF 393,10.3 µM
same,CC50,RXF 393,> 100 µM
same,GI50,TK-10,54.3 µM
same,CC50,TK-10,> 100 µM
same,GI50,MDA-MB-468,13.7 µM
same,CC50,MDA-MB-468,69.5 µM
CN(C)c1nc(NCCNS(=O)(=O)c2ccc(C(=O)/C=C/c3ccccc3)cc2)nc(Nc2ccc(F)cc2)n1 [24a],MIC,[6],25 µg/mL
same,GI50,K-562,3.34 µM
same,CC50,K-562,> 100 µM
same,GI50,SR,2.58 µM
same,CC50,SR,> 100 µM
same,GI50,A549/ATCC,8.33 µM
same,CC50,A549/ATCC,73.5 µM
same,GI50,HOP-92,8.1 µM
same,CC50,HOP-92,60.1 µM
same,GI50,NCI-H23,10.1 µM
same,CC50,NCI-H23,50 µM
same,GI50,NCI-H460,4.34 µM
same,CC50,NCI-H460,56.5 µM
same,GI50,NCI-H522,5.47 µM
same,CC50,NCI-H522,53.6 µM
same,GI50,HCC-2998,2.35 µM
same,CC50,HCC-2998,17.9 µM
same,GI50,HCT-15,2.04 µM
same,CC50,HCT-15,7.25 µM
same,GI50,KM12,3.74 µM
same,CC50,KM12,54 µM
same,GI50,SW-620,5.56 µM
same,CC50,SW-620,54.3 µM
same,GI50,SNB-19,10.4 µM
same,CC50,SNB-19,51 µM
same,GI50,SNB-75,3.23 µM
same,CC50,SNB-75; read-out: LC50,> 100 µM
same,GI50,SK-MEL-2,10.6 µM
same,CC50,SK-MEL-2,55.4 µM
same,GI50,SK-MEL-28,10.2 µM
same,CC50,SK-MEL-28,48.4 µM
same,GI50,SK-MEL-5,4.7 µM
same,CC50,SK-MEL-5,41.6 µM
same,GI50,IGROV1,11.2 µM
same,CC50,IGROV1,50.6 µM
same,GI50,NCI/ADR-RES,7.33 µM
same,CC50,NCI/ADR-RES; read-out: LC50,50.3 µM
same,GI50,SK-OV-3,13 µM
same,CC50,SK-OV-3,68.1 µM
same,GI50,786-0,11.2 µM
same,CC50,786-0,56.9 µM
same,GI50,CAKI-1,4.75 µM
same,CC50,CAKI-1,52.6 µM
same,GI50,RXF 393,2.94 µM
same,CC50,RXF 393,39.9 µM
same,GI50,TK-10,14.6 µM
same,CC50,TK-10,65.5 µM
same,GI50,MDA-MB-468,2.84 µM
same,CC50,MDA-MB-468,37.6 µM
